The test system of test [1] is NR/hypo-induced vacuoles in PC/RS cortical neurons (MK-801). Description: Anti-psychotic drugs and sigma blockers: protection against NR/hypo-induced vacuoles. The test is classed as in vivo, rats. Particulars: Rattus norvegicus, Cortical neurone, ip, read-out: ED50 in protecting against NR/hypo-induced vacuoles. The protocol: Several of the antipsychotic agents tested (haloperidol, thioridazine and loxapine) are known to interact with both dopamine receptors and sigma receptors.
Control animals received saline or DMSO, but no anti-psychotic drugs. Test animals were injected ip with an antipsychotic drug, listed above and in Table 2. Vacuoles were counted and data were processed as described in Example 1.

A further test has as its system 5HT-2C. Particulars: cited from earlier work.
The subject of another test is 5HT-3. Particulars: cited from earlier work.
For the next test, the system named is 5HT-6. The settings on record: cited from earlier work.
Another test relates to 5HT-7. Particulars: cited from earlier work.
Test [2] has as its system NMDA antagonist toxic side effects. The test is described as follows: Safener drugs against NMDA antagonist toxic side effects (earlier findings). It counts as in vivo. Particulars: Applicants' discovery, no data given.

Each structure is given as a SMILES string.

On to `CN1CCN(C2=Nc3cc(Cl)ccc3Nc3ccccc32)CC1` [Clozapine], for which, in test [1], the ED50 turned out to be 3.2 mg/kg. Moreover, the “affinity for 5HT-2C” value in the test with 5HT-2C was “high affinity”. Also, the “affinity for 5HT-3” value in the test on 5HT-3 was “high affinity”. Further, the “affinity for 5HT-6” value in the test with 5HT-6 is on record as “high affinity”. The “affinity for 5HT-7” value in the test on 5HT-7 was “high affinity”.

Take `C=CCC1(C(C)CCC)C(=O)NC(=O)NC1=O` (stereo not drawn) [secobarbitol]: the “prevention of NMDA antagonist toxic side effects” value in test [2] is “prevent NMDA antagonists from causing toxic side effects”.

The values are drawn from patent US5902815A, “Use of 5HT-2A serotonin agonists to prevent adverse effects of NMDA receptor hypofunction” (priority 1996, dated 1999).
